The values below come from patent US9096544B2, “Therapeutic compounds” (Wayne State University, priority 2009, dated 2015).

Structures are written as SMILES. ≈ marks a conversion by molar mass, not a printed value. Like-named read-outs stand apart in the source and are kept apart here.

The nature of data set [1]: Test H: aqueous solubility by UV absorbance. Type of data set: physicochemical. The following applies: thermodynamic from solid, 22° C. As for the experimental part:
Standard curves at the UV λmax (330, 350 and 345 nm for 3-Cl-AHPC, 18 and 16, respectively) were generated using 0.245, 0.163, 0.049 and 0.025 mM 3-Cl-AHPC and 0.380, 0.178, 0.053 and 0.027 mM 18 and 16, which were prepared from 1.0% (wt/vol) solutions of compounds in Me2SO. […] Measurements for maximum solubilities in distilled water (pH 5) and phosphate-buffered saline (PBS, pH 7.2) at 22° C. were made by UV absorbance using solutions obtained after saturation at higher temperatures, overnight incubation at 22° C., and centrifugation to remove undissolved material.

Data set [2] deals with AML KG-1 human myeloid cell line. Nature of the data set: Test A: apoptosis induction in AML KG-1 cell line. Type of data set: cell-based. An excerpt: Inhibition of Cell Growth and Induction of Apoptosis in AML KG-1 Human Myeloid Cell Line.
Methods for measuring the inhibition of cell growth and induction of apotosis followed literature procedures (Dawson, M. I., et al., J. Med. Chem., 2007, 50, 2622-2639).

Another data set relates to TF(v-SRC) cells. Nature of the data set: Test B: apoptosis of TF(v-SRC) cells (acridine orange/ethidium bromide, nuclear fragmentation). The format is cell-based. The conditions noted are these: FIG. 2C. The method, then:
FIG. 2 illustrates apoptosis induction in FFMA-AML and TF(v-SRC) cells by 3-Cl-AHPC and compound 16. Cells were seeded at 1×10^4 cells/ml, grown for 24 h and then exposed to 1 μM compound 16 or 3-Cl-AHPC A) at various concentrations of the compound for 96 h and B) for increasing times of exposure. C) Induction of apoptosis by 3-Cl-AHPC, all-trans-retinoic acid, 9-cis-retinoic acid and TTNPB in FFMA-AML and TF(v-SRC) cells. The percentage of apoptotic cells was determined using acridine orange and ethidium bromide staining to determine nuclear fragmentation as described in the general biochemical and pharmacological materials and methods. The error bars represent the mean of three separate determinations +/− the standard deviation (SD).
FFMA-AML cells were obtained from a patient with a diagnosis of AML as indicated by the immunophenotyping described in Table 1. This patient was refractory to the chemotherapy regimens consisting of cytosine arabinoside given with daunomycin as well as high-dose cytosine arabinoside. Peripheral blood samples were obtained from the patient utilizing a Wayne State University Institutional Review Board approved protocol and the leukemic blasts were isolated utilizing Ficoll hypaque. The isolated leukemic cells (representing >99% of the cells) were subsequently cultured in RPMI 1640 supplemented with 10% heat-inactivated fetal bovine serum (FBS) and growth factors interleukin 3 (IL-3), granulocyte-colony stimulating factor (G-CSF), granulocyte/macrophage colony-stimulating factor (GM-CSF), and stem cell factor (SCF) as we have previously reported, and then the cells were maintained in 10% FBS and gentamycin (Zhang Y. et al., Blood, 2003; […]:3743-3752). The TF(v-SRC) leukemia cells have been previously described (Black J. H. et al., Leukemia. 2003; 17:155-159). TF(v-SRC) cells were grown in RPMI 1640 supplemented with 10% heat inactivated FBS.
Apoptosis of cells was determined by (1) acridine orange and ethidium bromide-staining to assess cells with nuclear fragmentation and chromatin condensation as previously described (Farhana L. et al., Cancer Res. 2006; 65:4909-4917) and (2) flow cytometry assessing Annexin V-FITC binding together with propidium iodide staining (Annexin V-FITC apoptosis Detection kit 1, BD Biosciences, San Diego, Calif.). Data acquisition was done on a FACS Calibur flow cytometer (BD) and analyzed with CellQuest software.
Cells were grown in the presence and absence of increasing concentrations of either 3-Cl-AHPC or compound 16 and for varying periods of time. There was a progressive increase in 3-Cl-AHPC- and compound 16-mediated apoptosis in both FFMA-AML and TF(v-SRC) cells with time and with increasing concentrations of the compounds. […] We therefore tested the sensitivity of FFMA-AML and TF(v-SRC) cells to apoptosis induction by tRA, 9-cis RA, and TTNPB (FIG. 2C).

Data set [3] relates to acute promyelocytic leukemia (APL). The following applies: pharmacologic concentrations; cited from earlier work.

What is called melting point is the temperature, or range, at which the solid turns liquid. What is called solubility is how much of the substance goes into solution per volume. As to `CCOC(=O)/C=C/c1ccc(-c2ccc(O)c(C34CC5CC(CC(C5)C3)C4)c2)nc1` [Compound 18, Ethyl(E)-3-{6-[3′-(1-adamantyl)-4′-hydroxyphenyl]-3-pyridinyl}-2-propenoate], the melting point fell in the range of 215 to 217 °C. Moreover, in data set [1] (phosphate-buffered saline, aqueous buffer, PBS pH 7.2, read-out: Solubility (μM) at 22° C. PBS (pH 7.2)), the solubility turned out to be 14 µM (≈ 5.65 µg/mL). The solubility in data set [1] (distilled water pH 5, read-out: Solubility (μM) at 22° C. Distilled water (pH 5)) was determined as 7 µM (≈ 2.82 µg/mL).
For `O=C(O)/C=C/c1cnc(-c2ccc(O)c(C34CC5CC(CC(C5)C3)C4)c2)cn1` [Compound 23, (E)-3-{2-[3-(1-Adamantyl)-4-hydroxyphenyl]-5-pyrazinyl}-2-propenoic Acid], the melting point is 296 °C (dec.).
In the case of `O=C(O)/C=C/c1ccc(-c2ccc(O)c(C34CC5CC(CC(C5)C3)C4)c2)nn1`, in data set [2] (treatment time 48 h), the “Apoptosis Induction (% control) 1.0 μM” value worked out at 52 % control and the “Apoptosis Induction (% control) 5.0 μM” value is reported as 67 % control.
The matching figures for `CC(=O)Oc1ccc(-c2ccc(/C=C/C(=O)O)cn2)cc1C12CC3CC(CC(C3)C1)C2`: 0 % control and 0 % control.
Consider `O=C(O)/C=C/c1cnc(-c2ccc(O)c(C34CC5CC(CC(C5)C3)C4)c2)cn1` [drawing 30], for which, in data set [2] (treatment time 48 h), the “Apoptosis Induction (% control) 1.0 μM” value came out at 39 % control and the “Apoptosis Induction (% control) 5.0 μM” value is recorded as 50 % control.
The matching figures for `O=C(O)/C=C/c1ccc(-c2ccc(O)c(C34CC5CC(CC(C5)C3)C4)c2)nc1`: 48 % control and 59 % control.
As for `CC1=C(/C=C/C(C)=C\C=C\C(C)=C\C(=O)O)C(C)(C)CCC1` [Compound 9-cis-RA, 9-cis-retinoic acid], the induction of apoptosis result with TF(v-SRC) cells was “no real increase in apoptosis”.
As for `O=C(O)CNc1cnc(-c2ccc(O)c(C34CC5CC(CC(C5)C3)C4)c2)nc1` [Compound 17, 2-[3-(1-Adamantyl)-4-hydroxyphenyl]-5-(carboxymethylamino)pyrimidine], the melting point is 235 °C (dec.).
With `O=C(O)/C=C/c1ccc(-c2ccc(O)c(C34CC5CC(CC(C5)C3)C4)c2)c(Cl)c1`, in data set [2] (treatment time 48 h), the “Apoptosis Induction (% control) 1.0 μM” value was determined as 30 % control and the “Apoptosis Induction (% control) 5.0 μM” value is 55 % control.
Take `C/C(=C\c1ccc(C(=O)O)cc1)c1ccc2c(c1)C(C)(C)CCC2(C)C` [TTNPB]: in the data set on TF(v-SRC) cells, the induction of apoptosis entry is “no real increase in apoptosis”.
Consider `O=C(O)CNc1cnc(-c2ccc(O)c(C34CC5CC(CC(C5)C3)C4)c2)nc1` [drawing 24], for which, in data set [2] (treatment time 48 h), the “Apoptosis Induction (% control) 1.0 μM” value is on record as 0 % control and the “Apoptosis Induction (% control) 5.0 μM” value is recorded as 0 % control.
In the case of `CC1=C(/C=C/C(C)=C/C=C/C(C)=C/C(=O)O)C(C)(C)CCC1` [tRA, all-trans-retinoic acid], in data set [3], the “patients achieving a complete remission” value is recorded as 90%. The induction of apoptosis result in the data set on TF(v-SRC) cells is “no real increase in apoptosis”.
Take `CCOC(=O)/C=C/c1ccc(-c2ccc(O)c(C34CC5CC(CC(C5)C3)C4)c2)nc1` [drawing 25]: in data set [2] (treatment time 24 h), the “Apoptosis Induction (% control) 1.0 μM” value stood at 60 % control and the “Apoptosis Induction (% control) 5.0 μM” value amounted to 68 nd % control. Also, in data set [2] (treatment time 48 h), the “Apoptosis Induction (% control) 1.0 μM” value turned out to be 55 % control.
With `O=C(O)/C=C/c1cnc(-c2ccc(O)c(C34CC5CC(CC(C5)C3)C4)c2)nc1` [drawing 23], in data set [2] (treatment time 48 h), the “Apoptosis Induction (% control) 1.0 μM” value was determined as 40 % control and the “Apoptosis Induction (% control) 5.0 μM” value turned out to be 50 % control.
For `O=C(O)/C=C/c1ccc(-c2ccc(O)c(C34CC5CC(CC(C5)C3)C4)c2)cn1` the same measures were 36 % control and 52 % control.
For `O=C(O)/C=C/c1cnc(-c2ccc(O)c(C34CC5CC(CC(C5)C3)C4)c2)c(Cl)c1` the same measures were 55 % control and 65 % control.
